From US4029801A, “Pharmaceutical compositions and methods of treating hypertension” (priority 1970, dated 1977)
Like-named read-outs stand apart in the source and are kept apart here.

Experiments:
blood pressure = assay: Tests for action on the cardiovascular system: hypotensive activity (activity in method 1, rats or cats, or method 2), reported in words; assay type: in vivo, rat, cat; conditions: standard test procedure, result in words
Method: Tests for action on the cardiovascular system were conducted according to one of the following procedures:
Cats were anaesthetised with pentobarbitone sodium (30 mg/kg) and the cephalic vein, femoral and carotid arteries and trachea were cannulated. The carotid cannula was introduced into the left ventricle and the femoral cannula into the aorta. Blood pressure and heart rate were recorded from the aortic cannula and left ventricular pressure from the carotid cannula. The test compunds were administered intravenously (0.1-25.6 mg/kg).
Method 2 (hypertensive rats)
Male or female rats are rendered hypertensive by applying a figure of 8 ligature around one kidney and contralateral nephrectomy. Blood pressure stabilises at a hypertensive level after 6 weeks. Systolic pressure is measured indirectly using a Decker Caudal Plethysmograph A control group of rats is run with each group treated with drug. Each group usually consists of six rats. Drugs are usually administered by the IP or oral routes. Pressures are read prior to drug administration and at two and 24 hours thereafter.

histamine = target: T1, histamine (Cavia porcellus, UniProt P31389); assay: Antihistamine activity by the method of Alps et al.; conditions: for antihistamine activity: result in words
T1 construct: from tissue
T1 sequence (P31389 whole entry): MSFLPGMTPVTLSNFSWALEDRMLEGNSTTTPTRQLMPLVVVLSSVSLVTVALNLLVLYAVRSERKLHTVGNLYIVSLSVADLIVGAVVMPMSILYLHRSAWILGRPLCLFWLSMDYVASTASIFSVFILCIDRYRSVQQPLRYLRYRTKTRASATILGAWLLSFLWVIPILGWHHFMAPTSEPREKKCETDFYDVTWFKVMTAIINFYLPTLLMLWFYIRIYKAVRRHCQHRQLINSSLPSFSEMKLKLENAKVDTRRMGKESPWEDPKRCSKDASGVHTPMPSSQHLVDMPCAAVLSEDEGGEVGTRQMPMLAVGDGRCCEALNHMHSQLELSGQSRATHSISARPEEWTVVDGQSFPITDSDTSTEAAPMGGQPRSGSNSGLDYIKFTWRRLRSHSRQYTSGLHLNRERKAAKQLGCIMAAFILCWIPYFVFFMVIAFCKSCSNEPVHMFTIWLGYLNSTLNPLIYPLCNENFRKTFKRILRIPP

[1] = tested on: blood pressure and heart rate; assay: Method 1 (rat): hypotensive activity in anaesthetised rats, i.v.; conditions: for minimal effective dose: Rattus norvegicus, iv
Method: Rats were anaesthetised with pentobarbitone sodium (60 mg/kg) and the jugular vein, trachea and carotid artery were cannulated. […] A decrease in heart rate of more than 30% from control values was considered to be significant bradycardia.

α-adrenoceptor = assay: α-Adrenoceptor antagonism on the guinea pig aortic strip; conditions: for α-blockade pA2: Table 4; for α-adrenoceptor antagonism: result in words
Text: Carried out on the guinea pig aortic strip [Furchgott and Bhadrakom (1953) J. Pharmac. exp. Ther. 108, 129-143] by the method of Alps et al [Br. J. Pharmac. 1972 44, 52-62].

Depressant activity = assay type: in vivo; conditions: result in words
[2] = 0.25 h, read-out: Hypotensive Activity
[3] = Table 4, read-out: Antihistamine pA2 (converted)

Row | antihistamine activity (histamine) | SMILES | hypotensive activity (blood pressure) | minimal effective dose [1, 2] [mg/kg] | α-blockade pA2 (α-adrenoceptor) | depressant activity (Depressant activity) | further results
1 | antihistamine activity | O=C(NC1CCN(CCc2csc3ccccc23)CC1)c1ccccc1 [Example 100, 1-[2-(3-Benzo[b]thienyl)ethyl]-4-benzamidopiperidine] | hypotensive activity | < 30 | – | – | –
2 | – | O=C(NC1CCN(CCCC(c2ccc(F)cc2)c2ccc(F)cc2)CC1)c1ccccc1 [Example 88, 4-(4-Benzamidopiperid-1-yl)-1,1-(di-p-fluorophenyl)butane] | hypotensive activity | 1.6 to 3.2 | 5.9 | – | –
3 | – | CC(C)(C)c1ccc(C(=O)CCCN2CCC(NC(=O)c3ccccc3)CC2)cc1 [Example 70, 4-Benzamido-1-[4-(4-tert-butyl-phenyl)-4-oxobutyl]piperidine] | hypotensive activity | 0.8 | 6.6 | – | –
4 | – | O=C(NC1CCN(CCC(O)c2ccc3c(c2)OCCO3)CC1)c1ccccc1 (stereo not shown) [Example 92, 1-[3-(1,4-Benzodioxan-6-yl)-3-hydroxypropyl]-4-benzamido piperidine] | hypotensive activity | – | 6.6 | – | hypotensive activity ([1]; Table 3, cumulative iv dose, fall in diastolic blood pressure of 30 mm or more for at least 15 min): + ++
5 | – | CC(=O)Nc1ccc(O)c(CN2CCC(NC(=O)c3ccccc3)CC2)c1 [Example 18, 1-(5-Acetamido-2-hydroxybenzyl)-4-benzamidopiperidine] | – | < 30 | – | depressant activity | –
6 | – | O=C(NC1CCN(CCc2ccccc2)CC1)c1ccccc1 [Example 27, 1-Phenethyl-4-benzamidopiperidine] | hypotensive activity | 1.6 to 3.2 | – | – | pA2 (α-adrenoceptor antagonism) (α-adrenoceptor; guinea pig aortic strip): 5.7; Kb (histamine; Table 2): 79.4 nM; minimal effective dose ([1]; read-out: Significant hypotension (dose; fall of 30 mm mercury or more in diastolic pressure)): 3.2 mg/kg; Fatal (dose) ([1]; anaesthetised rat, i.v., cumulative dose): 12.8 to 25.6 mg/kg
7 | – | O=C(NC1CCN(CCOc2ccccc2)CC1)c1ccccc1 [Example 52, 1-(2-Phenoxyethyl)-4-benzamidopiperidine] | marked hypotensive activity | 6.4 to 12.8 | 5.9 | – | –
8 | – | Cc1ccccc1NC(=O)CCN1CCC(NC(=O)c2ccccc2)CC1 [Example 16, 1-[N-(2-Methylphenyl)carbamoylethyl]-4-benzamidopiperidine] | – | – | – | depressant activity | –
9 | – | O=C(NC1CCN(CCc2c[nH]c3c2ccc2ccccc23)CC1)c1ccccc1 [Example 101, 1-[2-(3-Benz[g]indolyl)ethyl]-4-benzamidopiperidine] | marked hypotensive activity | 6.4 to 12.8 | – | depressant activity | –
10 | – | O=C(CCN1CCC(NC(=O)c2ccccc2)CC1)c1ccccc1 [Example 69, 4-Benzamido-1-(3-phenyl-3-oxopropyl)piperidine] | marked hypotensive activity | 1.6 to 3.2 | 6.6 | – | –
11 | antihistamine | Cc1ccc(C(=O)CCCN2CCC(NC(=O)c3ccccc3)CC2)c(C)c1 [Example 45, 4-Benzamido-1-[4-(2,4-dimethylphenyl)-4-oxo-butyl]piperidine] | hypotensive activity | 1.6 to 3.2 | 7.2 | – | α-adrenoceptor antagonism (α-adrenoceptor): α-adrenoceptor antagonist activity; Kb (histamine; [3]): 10 nM
12 | – | Nc1ccc(CCN2CCC(NC(=O)c3ccccc3)CC2)cc1 [Example 23, 1-[2-(p-Aminophenyl)ethyl]-4-benzamidopiperidine] | hypotensive activity | < 30 | – | depressant activity | –
13 | antihistamine activity | O=C(NC1CCN(CCCCc2ccccc2)CC1)c1ccccc1 [Example 46, 1-(4-Phenylbutyl)-4-benzamidopiperidine] | hypotensive activity | 6.4 to 12.8 | 6.95 | – | α-adrenoceptor antagonism (α-adrenoceptor): α-adrenoceptor antagonist; Kb (histamine; [3]): 39.8 nM
14 | – | O=C(CCCN1CCC(NC(=O)C2CCCCC2)CC1)c1ccccc1 [Example 75, 4-Cyclohexanecarboxamido-1-(4-phenyl-4-oxobutyl)piperidine] | marked hypotensive activity | 6.4 to 12.8 | 6.9 | – | –
15 | – | COc1ccc(CCN2CCC(NC(=O)c3ccc4c(c3)OCO4)CC2)cc1OC [Example 7, 1-[2-(3,4-Dimethoxyphenyl)ethyl]-4-piperonylamidopiperidine] | hypotensive | < 30 | – | depressant activity | –
16 | antihistamine | Cc1ccc(C)c(C(=O)CCCN2CCC(NC(=O)c3ccccc3)CC2)c1 [Example 44, 4-Benzamido-1-[4-(2,5-dimethylphenyl)-4-oxobutyl]piperidine] | hypotensive activity | 1.6 to 3.2 | 7.5 | – | α-adrenoceptor antagonism (α-adrenoceptor): α-adrenoceptor antagonist activities; Kb (histamine; [3]): 20 nM
17 | antihistamine activity | O=C(NC1CCN(CCc2ccncc2)CC1)c1ccccc1 [Example 93, 1-[2-(4-Pyridyl)ethyl]-4-benzamidopiperidine] | marked hypotensive activity | < 30 | – | – | –
18 | anti-histamine activity | O=C(NC1CCN(CCc2c[nH]cn2)CC1)c1ccccc1 [Example 96, 1-[2-(4-Imidazolyl)ethyl]-4-benzamidopiperidine] | hypotensive activity | 6.4 to 12.8 | – | – | –
19 | – | O=C(NC1CCN(CCCC(O)c2ccc3c(c2)CCCC3)CC1)c1ccccc1 (stereo not shown) [Example 79, 1-[4-(1',2',3',4'-Tetrahydro-6'-naphthyl)-4-hydroxybutyl]-4-benzamidopiperidine] | hypotensive activity | 1.6 to 3.2 | 6.05 | – | Kb (histamine; [3]): 100 nM
20 | – | O=C(CN1CCC(NC(=O)c2ccccc2)CC1)c1ccc(Cl)c(Cl)c1 [Example 34] | hypotensive | < 30 | – | depressant activities | –
21 | anti-histamine activity | O=C(NC1CCN(CCCCc2ccc(F)cc2)CC1)c1ccccc1 [Example 40, 1-[4-(p-Fluorophenyl)-n-butyl]-4-benzamidopiperidine] | hypotensive activity | 1.6 to 3.2 | 6.4 | – | α-adrenoceptor antagonism (α-adrenoceptor): α-adrenoceptor antagonism; Kb (histamine; [3]): 31.6 nM
22 | – | O=C(NC1CCN(CCc2cccc3ccccc23)CC1)c1ccccc1 [Example 12, 1-[2-(1-Naphthyl)ethyl]-4-benzamidopiperidine] | – | < 30 | – | depressant activity | –
23 | – | O=C(CCCN1CCC(NC(=O)c2ccccc2)CC1)c1ccc2c(c1)CCCC2 [Example 58, 1-[4-(1,2,3,4-Tetrahydro-6-naphthyl)-4-oxobutyl]-4-benzamidopiperidine] | hypotensive activity | 1.6 to 3.2 | 6.9 | – | –
24 | antihistamine activity | CC(=O)Nc1ccc(OCC(O)CN2CCC(NC(=O)c3ccccc3)CC2)cc1 (stereo not shown) [Example 17, 1-[1-(4-Acetamidophenoxy)-2-hydroxyprop-3-yl]-4-benzamidopiperidine] | hypotensive activity | < 30 | – | – | Kb (histamine; [3]): 100 nM
25 | – | Nc1ccccc1CCN1CCC(NC(=O)c2ccccc2)CC1 [Example 35, 1-[2-(o-Aminophenyl)ethyl]-4-benzamidopiperidine] | hypotensive | 6.4 to 12.8 | – | depressant activities | –
26 | – | COc1ccc(CCN2CCC(N)CC2)cc1OC [Example 4, 1-[2-(3,4-Dimethoxyphenyl)ethyl]-4-aminopiperidine] | hypotensive | – | – | depressant activity | –
27 | antihistamine activity | O=C(NC1CCN(CCC2=CCc3ccccc32)CC1)c1ccccc1 [Example 14, 1-[2-(3-Indenyl)ethyl]-4-benzamidopiperidine] | hypotensive activity | 6.4 to 12.8 | – | – | –
28 | – | O=C(CCCN1CCC(NC(=O)c2ccc3c(c2)OCO3)CC1)c1ccccc1 [Example 74, 4-Piperonylamido-1-(4-phenyl-4-oxobutyl)-piperidine] | hypotensive activity | 6.4 to 12.8 | 6.4 | – | –
29 | antihistamine activities | O=C(NC1CCN(CCCC2=CCc3ccccc32)CC1)c1ccccc1 [Example 15, 1-[3-(3-Indenyl)propyl]-4-benzamidopiperidine] | hypotensive | 6.4 to 12.8 | 7.4 | – | –
30 | – | O=C(NC1CCN(CCCCc2ccc3c(c2)CCCC3)CC1)c1ccccc1 [Example 81, 1-[4-(1',2',3',4'-Tetrahydro-6-naphthyl)butyl]-4-benzamidopiperidine] | hypotensive activity | 1.6 to 3.2 | 6.6 | – | –
